{"source": "paper PMC9310824", "about": "(Drug Delivery, 2022)", "key": {"[1]": {"design": "method as in Yao et al., 2014", "conditions": "PBS, within 24 h, ref Yao et al., 2014; cited from earlier work"}, "[2]": {"experiment": "Pharmacokinetic study in rats", "assay_type": "in vivo, SD rats", "conditions": "oral", "experimental": "Twelve SD rats (male, 200 ± 20 g) were maintained in the laboratory environment for 3 days before experiments. The rats were randomly divided into the free AS group and AS-AL-mPEG-PLGA group with 6 rats in each group. The rats have fasted from food for 12 h with free access to water before the experiment. Rats in the two groups were orally given free AS (dispersed CMC-Na solution) and AS-AL-mPEG-PLGA of equivalent AS dose (150 mg/kg). At each point of 0.25, 0.5, 0.75, 1, 1.5, 2, 2.5, 3, 4, 6, 8, 10, 12 and 24 h after administration, blood samples (0.4 mL) were collected from the orbit of rats with capillaries. The blood samples were placed in a 1.5 mL EP tube filled with heparin sodium and centrifuged at 3700 rpm for 10 min. Aliquot (200 μL) of supernatant was collected into another clean 1.5 mL EP tube. Next, 600 μL of methanol was added into the tube before vortexing for 1 min. The mixture was centrifuged at 10,000 rpm for 10 min and the methanol layer was […] prior to drying with N2 at 37 °C. The residue was dissolved with 100 μL methanol coupled with vortexing for 1 min, and then 10 min of centrifugation at 10,000 rpm. Then, the supernatant was taken and analyzed with HPLC. The peak areas of AS and internal standard were recorded and substituted into the standard curve in vivo to subsequently calculate the concentration of AS."}, "[3]": {"tested_on": "rat osteoporosis model (OVX)", "experiment": "Anti-osteoporotic effect in OVX rats: serum biochemical analysis (ELISA)", "assay_type": "in vivo", "experimental": "(§1) Bilateral ovariectomy (OVX) was performed to establish the rat osteoporosis model according to earlier work (Shakir et al., [2015]). Next, 24 rats were randomly divided into four groups (n = 6): sham operation group (Sham), OVX model group (OVX), free AS group (AS) and AS-AL-mPEG-PLGA group. Rats were anesthetized by intraperitoneal injection of pentobarbital sodium (1%, 8 mL/kg). Later, the rats were placed on a sterile table and fixed prone, while the surgical site on the back was shaved and sterilized with iodophor. Double incisions were taken under the costal back to separate the muscular layer and retroperitoneum into the abdominal cavity. The ovaries were found in the adipose tissue below the kidneys and were removed with bent tweezers and ligated before complete excision of the bilateral ovaries. After confirming that there was no active bleeding, the muscle layer and skin were interlocked, whilst the wound was disinfected. In the Sham group, only a small amount of adipose tissue around the ovaries was removed without damage to both ovaries. The operation was done gently while attention was paid to the sterility principle. After the operation, the rats were kept warm, while drug administration began 4 weeks afterwards at once a day for 12 weeks. Rats in the groups Sham and OVX were given 2 mL of normal saline via the oral route. Rats in the AS and AS-AL-mPEG-PLGA groups orally received 2 mL of free AS (dispersed in CMC-Na solution, 150 mg/kg) and AS-AL-mPEG-PLGA solution (150 mg/kg) every day, respectively.\nAll the rats were sacrificed and blood samples were collected. The serum levels of TRACP-5b, BGP, IL-6 and CTX-1 were determined by enzyme-linked immunosorbent assay (ELISA) to evaluate bone absorption and bone formation. The operation steps were strictly in accordance with the instructions of the kits. Finally, the absorbances of the samples were measured at 450 nm with the microplate reader, so as to calculate the concentration of each biochemical index in the serum."}, "[4]": {"design": "method as in Zhang et al., 2007", "conditions": "after p.o. administration, ref Zhang et al., 2007; cited from earlier work"}, "[5]": {"tested_on": "rat osteoporosis model (OVX)", "experiment": "Anti-osteoporotic effect in OVX rats: micro-CT analysis of femur", "assay_type": "in vivo", "experimental": "as §1\nIn order to evaluate the bone microstructure, the right femur was analyzed with high-resolution micro-CT using the micro-CT imaging system (Siemens, Inveon) according to the method described in the literature (Zhang et al., [2012]). The femur was fixed in the centrifuge tube by the long axis, while the surrounding was filled with gauze. Quantitative parameters of bone microstructure including percent bone volume (BV/TV), trabecular thickness (Tb.Th), trabecular number (Tb.N), trabecular separation (Tb.Sp), structural model index (SMI) and bone mineral density (BMD) were measured. All the digital data, 2 D and 3 D images were provided by the built-in software of micro-CT (Siemens, Inveon)."}, "[6]": {"experiment": "Drug release study in vitro by dialysis", "assay_type": "physicochemical", "conditions": "within 48 h, 37 °C", "experimental": "The release of AS in vitro was determined by dialysis (Algul et al., [2018]). AS free drug dispersion solution (5 mg/mL, 1 mL) and AS-AL-mPEG-PLGA containing the same volume and concentration of AS were added into dialysis bags (MV 3500 D, 25 mm × 5 m) accordingly. The dialysis bags were placed in a conical flask after their two sections have been fastened together. Subsequently, 100 mL releasing media (pH 1.2 HCl solution, double distilled water and pH 7.4 PBS solution) were added consequently, before the conical flask was placed in a thermostatic water bath oscillator (37 ± 0.5 °C, 100 rpm) for in vitro release experiment. Samples were taken from the conical flask after 0.083, 0.25, 0.5, 0.75, 1, 1.5, 2, 3, 4, 6, 8, 10, 12, 24, 36, 48, 60, 72, 84 and 96 h of oscillation, respectively, while the same stable release medium with the same volume was added accordingly to maintain its dynamic balance. The samples were centrifugated at 10,000 rpm for 10 min before injection into HPLC for analysis according to the chromatographic conditions under the section of “HPLC analysis of AS.” Finally, the peak areas were recorded, and the concentrations of AS were substituted into the standard curve to calculate the cumulative drug release rate."}, "[7]": {"tested_on": "rat osteoporosis model (OVX)", "experiment": "Anti-osteoporotic effect in OVX rats: histological analysis (H&E) of femur", "assay_type": "in vivo", "conditions": "compared with the OVX group", "experimental": "as §1, with “Rats in the AS and AS-AL-mPEG-PLGA groups orally received 2 mL of free AS (dispersed in CMC-Na solution, 150 mg/kg) and AS-AL-mPEG-PLGA solution (150 mg/kg) every day, respectively.” left out"}, "[8]": {"experiment": "Detection of AS content in rats' bones", "assay_type": "in vivo", "conditions": "femur homogenate (1 g/mL saline) after the pharmacokinetic experiment, oral 150 mg/kg", "experimental": "After the pharmacokinetic experiment, the rats were sacrificed and the femurs were homogenized with normal saline at a ratio of 1 g/mL. We then centrifugated the homogenized samples at 10,000 rpm for 10 min, before treatment of the supernatant (200 μL) via the same method as described in the section “Pharmacokinetic study in rats.” Finally, the samples were analyzed via the HPLC method to detect the AS concentration in rats’ bones."}, "[9]": {"conditions": "oral 150 mg/kg daily, 12 weeks, P < .01"}}}
{"molecule": "CN(C)c1ccc(O)c2c1C[C@H]1C[C@H]3[C@H](N(C)C)C(O)=C(C(N)=O)C(=O)[C@@]3(O)C(O)=C1C2=O", "note": "[free minocycline, minocycline]", "values": [{"measurement": "minocycline released", "setting": "[1]", "value": "~100", "unit": "%"}]}
{"molecule": "Astragaloside", "values": [{"measurement": "mean plasma concentration at 1440 min", "setting": "[2]; 150 mg/kg", "value": "260 ± 50", "unit": "ng/mL"}, {"measurement": "AUC0-t", "setting": "[2]; AS dose 150 mg/kg", "value": "1520.45 ± 45.19", "unit": "µg·min/mL"}, {"measurement": "Cmax", "setting": "[2]; AS dose 150 mg/kg", "value": "5250 ± 500", "unit": "ng/mL"}, {"measurement": "MRT", "setting": "[2]; AS dose 150 mg/kg", "value": "5.55 ± 0.143", "unit": "h"}, {"measurement": "T1/2", "setting": "[2]; AS dose 150 mg/kg", "value": "6.5952 ± 0.4407", "unit": "h"}, {"measurement": "Tmax", "setting": "[2]; AS dose 150 mg/kg", "value": "2 ± 0", "unit": "h"}, {"measurement": "expression level of IL-6 compared with OVX group", "setting": "[3]; [9]", "value": "decreased significantly"}, {"measurement": "serum level of BGP compared with OVX group", "setting": "[3]; [9]", "value": "significantly decreased"}, {"measurement": "serum level of CTX-1 compared with OVX group", "setting": "[3]; [9]", "value": "significantly decreased"}, {"measurement": "serum level of TRACP-5b compared with OVX group", "setting": "[3]; [9]", "value": "significantly decreased"}, {"measurement": "serum level of IL-6", "setting": "[3]; oral 150 mg/kg once a day for 12 weeks", "value": "53.88 ± 4.23", "unit": "pg/mL"}, {"measurement": "absolute bioavailability", "setting": "[4]", "value": 7.4, "unit": "%"}, {"measurement": "bone microstructure in 2D and 3D micro-CT images", "setting": "[5]; compared with OVX group", "value": "significantly reduce osteoporosis and increase dense bone mass"}, {"measurement": "BMD (bone mineral density)", "setting": "[5]; oral 150 mg/kg daily, 12 weeks", "value": "notably increased"}, {"measurement": "BV/TV (percent bone volume)", "setting": "[5]; oral 150 mg/kg daily, 12 weeks", "value": "notably increased"}, {"measurement": "SMI (structural model index)", "setting": "[5]; oral 150 mg/kg daily, 12 weeks", "value": "substantially reduced"}, {"measurement": "Tb.N (trabecular number)", "setting": "[5]; oral 150 mg/kg daily, 12 weeks", "value": "notably increased"}, {"measurement": "Tb.Sp (trabecular separation)", "setting": "[5]; oral 150 mg/kg daily, 12 weeks", "value": "substantially reduced"}, {"measurement": "Tb.Th (trabecular thickness)", "setting": "[5]; oral 150 mg/kg daily, 12 weeks", "value": "notably increased"}, {"measurement": "cumulative release rate", "setting": "[6]; double distilled water", "value": 93.85, "unit": "%"}, {"measurement": "cumulative release rate", "setting": "[6]; pH 1.2 HCl solution", "value": 96.87, "unit": "%"}, {"measurement": "cumulative release rate", "setting": "[6]; pH 7.4 PBS solution", "value": 95.95, "unit": "%"}, {"measurement": "adipose tissue in femur, H&E staining", "setting": "[7]", "value": "relatively less adipose tissue"}, {"measurement": "concentration of AS in bone", "setting": "[8]", "value": "1950 ± 170", "unit": "ng/mL"}]}
